Experimental data reported in article PMC11249646, “Small-Molecule Disruptors of the Interaction between Calcium- and Integrin-Binding Protein 1 and Integrin αIIbβ3 as Novel Antiplatelet Agents” (ACS Pharmacology & Translational Science, 2024).
Where two headings read alike, the source gives them in different places.

Experiments:
[1] = molecular target: T1, GST-CIB1 : F-scrambled peptide (Homo sapiens, UniProt Q99828); assay: FP scrambled-peptide counter screen, 1536-well format; type: binding; settings: for Curve Class (counterscreen) / COUNTERSCREEN Curve Class: qHTS curve class
T1 construct: made in house; host or cells: BL-21 plus RIL cells (E. coli)
T1 sequence (Q99828 1-191): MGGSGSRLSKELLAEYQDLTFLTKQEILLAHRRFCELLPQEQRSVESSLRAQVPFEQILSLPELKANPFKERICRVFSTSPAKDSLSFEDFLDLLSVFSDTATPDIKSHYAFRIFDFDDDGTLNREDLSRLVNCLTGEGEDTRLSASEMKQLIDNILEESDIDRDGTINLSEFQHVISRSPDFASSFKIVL

[2] = molecular target: T2, CIB1 and αIIb interaction (CIB1-GST : F-αIIb peptide) (Homo sapiens, UniProt Q99828); assay: FP assay, 1536-well qHTS format (primary and confirmatory screen); type: binding; settings: for Curve Class (confirmatory screen) / CONFIRMATORY SCREEN Curve Class: qHTS curve class
T2 construct: made in house; host or cells: BL-21 plus RIL cells (E. coli)
T2 sequence (Q99828 1-191): T1 sequence (Q99828 1-191)

[3] = counterscreen, negative sign = inhibitory curve
[4] = counterscreen, read-out: IC50 [μM] (counterscreen)
[5] = confirmatory screen, negative sign = inhibitory curve
[6] = confirmatory screen, read-out: IC50 [μM] (confirmatory screen)
[7] = qHTS primary screen hits, Table S2, negative = inhibition
[8] = qHTS primary screen hits, Table S2, negative sign = inhibitory curve, several classes where COUNT > 1
[9] = qHTS primary screen hits, Table S2, read-out: IC50
[10] = qHTS FP screen hits, Table S2, negative = inhibition
[11] = qHTS FP screen hits, Table S2, read-out: IC50
[12] = qHTS primary screen hits, Table S2, negative sign = inhibitory curve
[13] = Table S3, counterscreen, a negative sign marks inhibitory curves
[14] = Table S3, counterscreen, negative = inhibition
[15] = Table S3, counterscreen, read-out: IC50 [μM] (counterscreen)
[16] = Table S3, confirmatory screen, a negative sign marks inhibitory curves
[17] = Table S3, confirmatory screen, negative = inhibition
[18] = scrambled-peptide counterscreen
[19] = scrambled-peptide counterscreen, YES/NO call
[20] = confirmatory screen, YES/NO call
[21] = confirmatory screen, negative = inhibition
[22] = confirmatory screen, read-out: CONFIRMATORY SCREEN IC50

## CCN1CCN(c2cccc(Nc3nn4c(=O)c5ccccc5nc4s3)c2)CC1.Cl [NCGC00187806-01]
[1]; counterscreen
  Efficacy (%) (counterscreen): -58%
[1]; [3]
  Curve Class (counterscreen): -3
[1]; [4]
  IC50: 89.1 µM
[2]; confirmatory screen
  Efficacy (%) (confirmatory screen): -38%
[2]; confirmatory screen, YES/NO
  Confirm? (confirmatory screen): YES
[2]; [5]
  Curve Class (confirmatory screen): -2.4
[2]; [6]
  IC50: 44.7 µM
[2]; [7]
  Efficacy (%): -24%
[2]; [8]
  Curve Class: -2.4
[2]; [9]
  IC50: 35.5 µM

## COc1ccc2c(=O)n3nc(Nc4cccc(N5CCN(C)CC5)c4)sc3nc2c1.Cl [NCGC00187813-01]
[1]; counterscreen
  COUNTERSCREEN Efficacy (%): -16%
  COUNTERSCREEN Curve Class: 4
[2]; confirmatory screen
  CONFIRMATORY SCREEN Efficacy (%): -43%
  CONFIRMATORY SCREEN Curve Class: 4
[2]; [7]
  Efficacy (%): -22%
[2]; [8]
  Curve Class: -1.4
[2]; [9]
  IC50: 17.8 µM

## CN1CCN(c2cccc(Nc3nn4c(=O)c5ccc(Br)cc5nc4s3)c2)CC1.Cl [NCGC00187814-01]
[1]; counterscreen
  Efficacy (%) (counterscreen): -54%
[1]; [3]
  Curve Class (counterscreen): -2.2
[1]; [4]
  IC50: 50.1 µM
[2]; confirmatory screen
  Efficacy (%) (confirmatory screen): -63%
[2]; confirmatory screen, YES/NO
  Confirm? (confirmatory screen): YES
[2]; [5]
  Curve Class (confirmatory screen): -2.4
[2]; [6]
  IC50: 50.1 µM
[2]; [10]
  Efficacy (%): -28%
[2]; [11]
  IC50: 39.8 µM

## O=C(O)C(F)(F)F.O=C1CCC2=C1C1(CCCC1)N=C(Nc1nc3ccccc3o1)N2 [NCGC00188036-01]
[1]; counterscreen
  COUNTERSCREEN Efficacy (%): -10%
  COUNTERSCREEN Curve Class: 4
[2]; confirmatory screen
  CONFIRMATORY SCREEN Efficacy (%): -27%
  CONFIRMATORY SCREEN Curve Class: 4
[2]; [7]
  Efficacy (%): -24%
[2]; [8]
  Curve Class: -1.4
[2]; [9]
  IC50: 2.8 µM

## CC1CCC2(C1)N=C(Nc1nc3ccccc3o1)NC1=C2C(=O)CCC1.O=C(O)C(F)(F)F (centres unmarked) [NCGC00188039-01]
[1]; counterscreen
  COUNTERSCREEN Efficacy (%): -20%
  COUNTERSCREEN Curve Class: 4
[2]; confirmatory screen
  CONFIRMATORY SCREEN Efficacy (%): -33%
  CONFIRMATORY SCREEN Curve Class: 4
[2]; [7]
  Efficacy (%): -25%
[2]; [12]
  Curve Class: -2.4
[2]; [9]
  IC50: 31.6 µM

## CC(C)c1nc(Nc2nc3ccccc3o2)nc2c1CCCC2.O=C(O)C(F)(F)F [NCGC00188040-01]
[1]; Table S3, counterscreen, YES/NO call
  Confirm? (counterscreen): YES
[1]; [13]
  Curve Class (counterscreen): -2.4
[1]; [14]
  Efficacy (%) (counterscreen): -36%
[1]; [15]
  IC50: 22.4 µM
[2]; [16]
  Curve Class (confirmatory screen): 4
[2]; [17]
  Efficacy (%) (confirmatory screen): -29%
[2]; [7]
  Efficacy (%): -19%
[2]; [12]
  Curve Class: -1.4
[2]; [9]
  IC50: 6.3 µM

## CSc1cc2c(s1)c1cnn(Cc3cccc(N)c3)c(=O)c1n2C.O=C(O)C(F)(F)F [NCGC00188341-01]
[1]; counterscreen
  Efficacy (%) (counterscreen): 0%
[1]; counterscreen, YES/NO
  Confirm? (counterscreen): YES
[1]; [3]
  Curve Class (counterscreen): 4
[2]; confirmatory screen
  Efficacy (%) (confirmatory screen): -133%
[2]; confirmatory screen, YES/NO
  Confirm? (confirmatory screen): YES
[2]; [5]
  Curve Class (confirmatory screen): -2.1
[2]; [6]
  IC50: 39.8 µM
[2]; [7]
  Efficacy (%): -65%
[2]; [8]
  Curve Class: -1.2
[2]; [9]
  IC50: 20 µM

## Cc1ccc(C(=O)NC(c2ccco2)c2cc(Cl)c3cccnc3c2O)cc1 (centres unmarked) [NCGC00188372-01]
[1]; [14]
  Efficacy (%) (counterscreen): 42%
[1]; [15]
  IC50: 89.1 µM
[2]; [16]
  Curve Class (confirmatory screen): 4
[2]; [17]
  Efficacy (%) (confirmatory screen): -11%
[2]; [7]
  Efficacy (%): -23%
[2]; [12]
  Curve Class: -1.4
[2]; [9]
  IC50: 31.6 µM

## O=C(NC(c1ccco1)c1cc(Cl)c2cccnc2c1O)c1cccs1.O=C(O)C(F)(F)F (centres unmarked) [NCGC00188375-01]
[1]; [14]
  Efficacy (%) (counterscreen): 81%
[1]; [15]
  IC50: 50.1 µM
[2]; [16]
  Curve Class (confirmatory screen): 4
[2]; [17]
  Efficacy (%) (confirmatory screen): 0%
[2]; [7]
  Efficacy (%): -35%
[2]; [8]
  Curve Class: -1.2
[2]; [9]
  IC50: 25.1 µM

## O=C(Cc1ccccc1)NC(c1ccco1)c1cc(Cl)c2cccnc2c1O.O=C(O)C(F)(F)F (centres unmarked) [NCGC00188377-01]
[1]; [13]
  Curve Class (counterscreen): 3
[1]; [14]
  Efficacy (%) (counterscreen): 61%
[1]; [15]
  IC50: 89.1 µM
[2]; [16]
  Curve Class (confirmatory screen): 4
[2]; [17]
  Efficacy (%) (confirmatory screen): -25%
[2]; [7]
  Efficacy (%): -35%
[2]; [8]
  Curve Class: -2.2
[2]; [9]
  IC50: 39.8 µM

## CS(=O)(=O)c1ccc(C(=O)OCC(=O)N2CCN(CCC3CCCCC3)CC2)cc1[N+](=O)[O-].O=C(O)C(F)(F)F [NCGC00188531-01]
[1]; [13]
  Curve Class (counterscreen): -2.2
[1]; [14]
  Efficacy (%) (counterscreen): -50%
[1]; [15]
  IC50: 39.8 µM
[2]; Table S3, confirmatory screen, YES/NO call
  Confirm? (confirmatory screen): YES
[2]; [16]
  Curve Class (confirmatory screen): -3
[2]; [17]
  Efficacy (%) (confirmatory screen): -49%
[2]; Table S3, confirmatory screen, read-out: IC50 [μM] (confirmatory screen)
  IC50: 39.8 µM
[2]; [7]
  Efficacy (%): -26%
[2]; [8]
  Curve Class: -1.4
[2]; [9]
  IC50: 0.9 µM

## CCCC1CCN(C(=O)COC(=O)c2ccc(S(C)(=O)=O)c([N+](=O)[O-])c2)CC1 [NCGC00188533-01]
[1]; [18]
  COUNTERSCREEN Efficacy (%): -28%
  COUNTERSCREEN Curve Class: 4
[1]; [19]
  COUNTERSCREEN Confirm?: YES
[2]; [20]
  CONFIRMATORY SCREEN Confirm?: YES
[2]; [5]
  CONFIRMATORY SCREEN Curve Class: -1.4
[2]; [21]
  CONFIRMATORY SCREEN Efficacy (%): -28%
[2]; [22]
  IC50: 2.5 µM
[2]; [10]
  Efficacy (%): -25%
[2]; [11]
  IC50: 1.3 µM

## CC(OC(=O)c1ccc(S(C)(=O)=O)c([N+](=O)[O-])c1)C(=O)NC1C2CC3CC(C2)CC1C3 (centres unmarked) [NCGC00188535-01]
[1]; counterscreen
  COUNTERSCREEN Efficacy (%): -20%
  COUNTERSCREEN Curve Class: 4
[2]; confirmatory screen
  CONFIRMATORY SCREEN Efficacy (%): -32%
  CONFIRMATORY SCREEN Curve Class: 4
[2]; [7]
  Efficacy (%): -30%
[2]; [8]
  Curve Class: -1.2
[2]; [9]
  IC50: 1.8 µM

## CCC(OC(=O)c1ccc(S(C)(=O)=O)c([N+](=O)[O-])c1)C(=O)NC1C2CC3CC(C2)CC1C3 (centres unmarked) [NCGC00188536-01]
[1]; [18]
  COUNTERSCREEN Efficacy (%): -50%
  COUNTERSCREEN Curve Class: -2.2
[1]; [19]
  COUNTERSCREEN Confirm?: YES
[1]; scrambled-peptide counterscreen, read-out: COUNTERSCREEN IC50
  IC50: 31.6 µM
[2]; [20]
  CONFIRMATORY SCREEN Confirm?: YES
[2]; [5]
  CONFIRMATORY SCREEN Curve Class: -1.4
[2]; [21]
  CONFIRMATORY SCREEN Efficacy (%): -52%
[2]; [22]
  IC50: 2.5 µM
[2]; [7]
  Efficacy (%): -27%
[2]; [8]
  Curve Class: -1.4
[2]; [9]
  IC50: 1.4 µM

## CS(=O)(=O)c1ccc(C(=O)OCC(=O)N2CCC(Cc3ccccc3)CC2)cc1[N+](=O)[O-] [NCGC00188541-01]
[1]; counterscreen
  COUNTERSCREEN Efficacy (%): -22%
  COUNTERSCREEN Curve Class: 4
[2]; confirmatory screen
  CONFIRMATORY SCREEN Efficacy (%): -18%
  CONFIRMATORY SCREEN Curve Class: 4
[2]; [10]
  Efficacy (%): -25%
[2]; [11]
  IC50: 0.7 µM

## O=C(O)C(F)(F)F.O=C1CCCC2=C1C1(CCCOC1)N=C(Nc1nc3ccccc3o1)N2 (centres unmarked) [NCGC00188575-01]
[1]; counterscreen
  COUNTERSCREEN Efficacy (%): -21%
  COUNTERSCREEN Curve Class: 4
[2]; confirmatory screen
  CONFIRMATORY SCREEN Efficacy (%): -18%
  CONFIRMATORY SCREEN Curve Class: 4
[2]; [7]
  Efficacy (%): -34%
[2]; [8]
  Curve Class: -2.2
[2]; [9]
  IC50: 28.2 µM

## Cn1c(NC2=NC3(CCCC3)C3=C(CCCC3=O)N2)nc2ccccc21.O=C(O)C(F)(F)F [NCGC00188583-01]
[1]; counterscreen
  Efficacy (%) (counterscreen): -13%
[1]; counterscreen, YES/NO
  Confirm? (counterscreen): YES
[1]; [3]
  Curve Class (counterscreen): 4
[2]; confirmatory screen
  Efficacy (%) (confirmatory screen): -31%
[2]; confirmatory screen, YES/NO
  Confirm? (confirmatory screen): YES
[2]; [5]
  Curve Class (confirmatory screen): -2.4
[2]; [6]
  IC50: 89.1 µM
[2]; [10]
  Efficacy (%): -27%
[2]; [11]
  IC50: 7.1 µM
